Consider 1 molecule from article PMC10723784, “Investigation of the cytotoxicity induced by cannabinoids on human ovarian carcinoma cells” (Pharmacology Research & Perspectives, 2023).

The test system of one assay is A2780 cells. Nature of the assay: MTT cytotoxicity assay, A2780 cells. Particulars: for IC50: Homo sapiens, read-out: IC50 cytotoxicity. As to the method: In separate experiments, cells were seeded in 96‐well plates and after 24 h elapsed they were exposed to different concentrations of drugs or vehicle. Cells were then left in the incubator for a further 24 or 48 h. Then the media was replaced with fresh media containing no drug and the cells were left in the incubator. MTT assay was performed after 96 h elapsed from the time when cells were exposed to drugs or vehicle.
The cells were then left in the incubator and MTT assay was performed 96 h following the initial exposure to the drugs.
The selective index (SI) is the ratio of mean IC50 values for non‐cancer cells to cancer cells. […] While the isobologram can be considered predominantly as a graphical depiction of drug interactions, the combination index (CI) is a quantitative representation. It relates the actual drug concentration in the combination to the concentration of the single drug that achieves the same effect. […] Here, CI analysis was used to investigate combinations at 50% cytotoxicity. To this end the IC50 of the viability dose–response curves were determined by non‐linear regression curve fit analysis (GraphPad Prism, v5.00).
CIA+B is the combination index of A and B; C A the concentration of A applied in combination; C B the concentration of B applied in combination; IC50 A the IC50 of drug A when it was applied individually to the cells; IC50 B = IC50 of drug B when it was applied individually to the cells.
(Formazan colour is commonly taken as a measure of viable cells.)

The test system of assay [1] is A2780/CP70 cells. Nature of the assay: Annexin V assay, A2780/CP70 cells. Particulars: A2780/CP70, 50 μM, 24 h. It is filed as cell-based, human. The procedure: (§1) The Annexin V assay was performed to differentiate healthy cells from early and late apoptotic cells. Cells were seeded in T25 flasks at 2.75 × 10^5 cells per flask and were incubated for 24 h. After the incubation time elapsed, drugs at concentrations of 10, 30, and 50 μM or vehicle were added to the flasks and further incubated for 24 h. Cells were suspended in PBS at a density of 4 × 10^5 cells/mL, followed by centrifugation at 400 g for 5 min. The supernatant was removed and replaced with 100 μL of Annexin V mix, 94 μL of Roche buffer, 2 μL of Annexin V‐CF488A, 2 μL of 10 μg/mL of propodium iodide (PI), and 2 μL of Hoechst 33342 buffer. Hoechst 33342 buffer in the Annexin V mix binds to the nuclei in the sample and fluoresces violet. The early apoptotic cells are stained with Annexin V‐CF488A, which fluoresces green. The non‐viable cells are stained by PI, and the late apoptotic cells are stained by both PI and Annexin V‐CF488A, which fluoresces red and green, respectively. […] After the incubation time elapsed, 40 μL of samples were loaded on to an A‐2 slide and were analyzed immediately using the NC‐3000 system. The scatter plot of the fluorescence intensity of Annexin V‐CF488A versus the fluorescence intensity of PI was used as a representation of cells in different stages of apoptosis.

Assay [2] deals with A2780/CP70 cells. Nature of the assay: Mitochondrial membrane potential assay (JC-1), A2780/CP70 cells. It is filed as cell-based, human. Particulars: A2780/CP70, 10-50 μM, 24 h, dose-dependent. The procedure: The mitochondrial membrane potential assay was performed to detect the loss in mitochondrial potential (de‐polarization), which is a vital step in apoptosis.[36] Cells were seeded in T25 flasks at 4 × 10^5 cells per flask and were incubated for 48 h or until they reached confluency. After the incubation time elapsed, drugs at concentrations of 10, 30, and 50 μM or vehicle were added to the flasks and further incubated for 24 h. After 24 h elapsed, the cells were harvested and suspended in PBS. Cell viability and number were determined by the cell viability assay using via1 cassettes on NC‐3000 system. The samples were diluted in PBS to 1 × 10^6 cells/mL and 2.5 μg/mL of JC‐1 dye was added to each sample. JC‐1 is a […] dye, which stains as fluorescent red as it aggregates in the mitochondrial matrix. In the absence of mitochondrial membrane potential, JC‐1 localizes in the cytosol in its fluorescent green form. Following the addition of JC‐1, the cells were incubated for 10–30 min at 37°C. […] 12.5 μL of samples were loaded on to an A‐8 slide and were analyzed using the NC‐3000 image cytometry. The degree of apoptosis (in proportional to the loss in mitochondrial membrane potential) was measured using a scatter plot of JC‐1 red fluorescence versus JC‐1 green fluorescence.

The subject of the next assay is ARPE19 cells. Kind of assay: Annexin V assay, ARPE19 cells. The note with it: ARPE19, 50 μM, 24 h. It is filed as cell-based, human. The procedure: as §1

Like-named read-outs stand apart in the source and are kept apart here.

In the case of `CCCCCc1cc(O)c(C/C=C(\C)CCC=C(C)C)c(O)c1` [CBG, cannabigerol], the IC50 – broadly, the concentration needed to halve the response being measured – in the assay on A2780 cells (A2780, 24 h) is 15.3 ± 0.3 µM; in the assay on A2780 cells (A2780, 48 h) it was 13.9 ± 0.6 µM; in the assay with A2780 cells (A2780, 72 h), 9.4 ± 0.8 µM; in the assay with A2780 cells (A2780, 96 h), 5.7 ± 0.2 µM. Moreover, the Selectivity index in the assay on A2780 cells (IC50 ARPE19 / IC50 A2780, 24 h) is 2.09; with A2780 cells (IC50 ARPE19 / IC50 A2780, 48 h), 1.53; in the assay on A2780 cells (IC50 ARPE19 / IC50 A2780, 72 h), 2.04; with A2780 cells (IC50 ARPE19 / IC50 A2780, 96 h) it was 3.05; in the assay on A2780 cells (IC50 PNT2 / IC50 A2780, 24 h), 2.43; in the assay on A2780 cells (IC50 PNT2 / IC50 A2780, 48 h), 1.65. The Selectivity index in the assay with A2780 cells (IC50 PNT2 / IC50 A2780, 72 h) was found to be 2.12; with A2780 cells (IC50 PNT2 / IC50 A2780, 96 h), 3.20. Further, the “Cells in early apoptosis” value with A2780/CP70 cells [1] amounted to 72 ± 1.4%; in the assay on ARPE19 cells it was 54 ± 2.1%. Moreover, the “Cells in late apoptosis” value with A2780/CP70 cells [1] stood at 9 ± 1.4%; in the assay with ARPE19 cells it was 5.6 ± 1.8%. Moreover, the “Percentage of apoptotic cells (loss of mitochondrial membrane potential)” value in the assay on A2780/CP70 cells [2] is given as “induced an increase in the percentage of apoptotic cells”.
